These results are taken from patent publication US4442103A, “Treating sedation with 1-(3-substituted-2-pyridinyl) piperazines” (Merck & Co., Inc., priority 1982, dated 1984).

Assay [1] deals with α1-adrenergic receptor. As to the kind of experiment: α1-adrenergic receptor binding ([3H] prazosin binding site). Conditions: calf cerebral cortex. The protocol: Extent of binding to the α1 -adrenergic receptor was determined by the method of Greengrass and Bremner, Eur. J. Pharmacol., 55, 323 (1979) and is expressed in Table II as Ki, representing the affinity of each compound for the [^3 H] prazosin binding site in calf cerebral cortex.

Assay [2] has as its system α2-adrenergic receptor. It counts as binding, calf. The conditions noted are these: for α1/α2 (ratio of Ki): Ki α1 / Ki α2, calf cerebral cortex; for Ki: [3H] clonidine binding site, calf cerebral cortex.
The test system of assay [3] is α1- or α2-adrenergic receptors. Conditions: cited from earlier work.
Assay [4] has as its system norepinephrine reuptake. Conditions: cited from earlier work.
Assay [5] has as its system locomotor depressant effects of methyldopa. The conditions noted are these: rats; cited from earlier work.
Assay [6] relates to sedation produced by clonidine. The conditions noted are these: in vivo; cited from earlier work.
Assay [7] relates to clonidine-induced sedation. The conditions noted are these: man; cited from earlier work.

The compound `Cl.Cl.Ic1cccnc1N1CCNCC1` [Compound 1, 1-(3-Iodo-2-pyridinyl)piperazine Dihydrochloride] came in with a Ki in assay [1] of 1600 nM. Further, in assay [2], the “α1/α2 (ratio of Ki)” value worked out at 38 and the Ki is 42 nM.

On to `CN1CCN(c2ncccc2Cl)CC1` [Compound 7], for which the Ki in assay [1] came out at 215 nM; in assay [2] it was 2.7 nM.

As for `CN1CCN2c3ccccc3Cc3ccccc3C2C1` (centres unmarked) [Mianserin], in assay [3], the “blockade of α2-adrenergic receptors” value is recorded as “blocks α2 -adrenergic receptors”. Further, the “selectivity for α1- or α2-adrenergic receptors” value in assay [3] (in vivo blockade suggested at about the same dose) was “fails to exhibit any important selectivity”. Besides, the “in vivo norepinephrine reuptake inhibiting properties” value in assay [4] is reported as “minimal”.

`CN1CCN(c2ncccc2Br)CC1` [Compound 2]: the figures for the Ki in assay [1] and in assay [2] were 160 nM and 2.9 nM, respectively. Besides, the “α1/α2 (ratio of Ki)” value in assay [2] was determined as 55.

Consider `CN1CCN(c2ncccc2F)CC1` [Compound 6], for which the affinity in assay [1] corresponds to a Ki of 490 nM. Besides, in assay [2], the “α1/α2 (ratio of Ki)” value is reported as 98 and affinity was put at a Ki of 5 nM.

`O=[N+]([O-])c1cccnc1N1CCNCC1` [Compound 5, 1-(3-Nitro-2-pyridinyl)piperazine]: the Ki is 3800 nM in assay [1] and 26 nM in assay [2]. Also, the “α1/α2 (ratio of Ki)” value in assay [2] turned out to be 146.

Regarding `FC(F)(F)c1cccnc1N1CCNCC1` [Compound 3], the Ki in assay [1] worked out at 2850 nM; in assay [2], 97 nM. Besides, the “α1/α2 (ratio of Ki)” value in assay [2] is recorded as 29.

Turning to `COC(=O)[C@@H]1[C@H]2C[C@H]3c4[nH]c5ccccc5c4CCN3C[C@@H]2CC[C@@H]1O` [yohimbine], the “effect on locomotor depressant effects of methyldopa” value in assay [5] is “antagonizes”. Moreover, the “effect on sedation produced by clonidine” value in assay [6] is given as “antagonizes the sedation produced by clonidine”. Moreover, the “effect on clonidine-induced sedation” value in assay [7] is on record as “reduce clonidine-induced sedation in man”.

`c1ccc(N2CCNCC2)nc1` [Compound 4] registered a Ki in assay [1] of 2400 nM. For the same compound, in assay [2], the “α1/α2 (ratio of Ki)” value was determined as 65 and the Ki is 37 nM.

What is called Ki is the dissociation constant of the complex between target and ligand, obtained from inhibition or displacement.
